Several values for one entry are separate records, joined by “and”; a condition that tells them apart may be missing. Equal entries are not always repeated. Blank lines part the entries; values can stand above or below the molecule they belong to.
Tested on: 874868-142-R-J2-PDC complex spheroids, growth % test/control
Assay: Anticancer human tumor 874868-142-R-J2-PDC patient-derived head and neck squamous carcinoma cell line growth inhibition [CLK]
Details: for viability, T/C: stronger effect = lower value
Outline: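 Patient-derived tumor cells grown as complex spheroids with HUVEC endothelial cells and mesenchymal stem cells, treated with drug combinations. Concentrations descend in half-log steps from near clinical Cmax, or from 10 microM if Cmax unknown.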

[1] = curve of first compound, second compound 0.0316 µM
[2] = curve of first compound, second compound 0.1 µM
[3] = curve of first compound, second compound 0.316 µM
[4] = curve of first compound, second compound 1 µM
[5] = curve of first compound, second compound 3.16 µM
[6] = curve of first compound, second compound 10 µM
[7] = second compound 0.0316 µM, first compound 0.0316 µM
[8] = second compound 0.0316 µM, first compound 0.1 µM
[9] = second compound 0.0316 µM, first compound 0.316 µM
[10] = second compound 0.0316 µM, first compound 1 µM
[11] = second compound 0.0316 µM, first compound 3.16 µM
[12] = second compound 0.0316 µM, first compound 10 µM
[13] = second compound 0.1 µM, first compound 0.0316 µM
[14] = second compound 0.1 µM, first compound 0.1 µM
[15] = second compound 0.1 µM, first compound 0.316 µM
[16] = second compound 0.1 µM, first compound 1 µM
[17] = second compound 0.1 µM, first compound 3.16 µM
[18] = second compound 0.1 µM, first compound 10 µM
[19] = second compound 0.316 µM, first compound 0.0316 µM
[20] = second compound 0.316 µM, first compound 0.1 µM
[21] = second compound 0.316 µM, first compound 0.316 µM
[22] = second compound 0.316 µM, first compound 1 µM
[23] = second compound 0.316 µM, first compound 3.16 µM
[24] = second compound 0.316 µM, first compound 10 µM
[25] = second compound 1 µM, first compound 0.0316 µM
[26] = second compound 1 µM, first compound 0.1 µM
[27] = second compound 1 µM, first compound 0.316 µM
[28] = second compound 1 µM, first compound 1 µM
[29] = second compound 1 µM, first compound 3.16 µM
[30] = second compound 1 µM, first compound 10 µM
[31] = second compound 3.16 µM, first compound 0.0316 µM
[32] = second compound 3.16 µM, first compound 0.1 µM
[33] = second compound 3.16 µM, first compound 0.316 µM
[34] = second compound 3.16 µM, first compound 1 µM
[35] = second compound 3.16 µM, first compound 3.16 µM
[36] = second compound 3.16 µM, first compound 10 µM
[37] = second compound 10 µM, first compound 0.0316 µM
[38] = second compound 10 µM, first compound 0.1 µM
[39] = second compound 10 µM, first compound 0.316 µM
[40] = second compound 10 µM, first compound 1 µM
[41] = second compound 10 µM, first compound 3.16 µM
[42] = second compound 10 µM, first compound 10 µM
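Note: spheroids exposed to the compounds for 7 days.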
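Throughout, for viability, T/C: 100% = DMSO vehicle control viability.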

SMILES: CC(Nc1ccc2c(c1)OCCn1cc(N3C(=O)OCC3C(F)F)nc1-2)C(N)=O (stereo not drawn) + CN1CCN(c2cc(C(=O)Nc3cc4cc(-c5cnn(C)c5)ccc4cn3)ccn2)CC1
IC50 [1]: 0.0894 µM
IC50 [2]: 0.0755 µM
IC50 [3]: < 0.0316 µM
IC50 [4]: < 0.0316 µM
IC50 [5]: < 0.0316 µM
IC50 [6]: < 0.0316 µM
viability, T/C [7]: 69.5%
viability, T/C [8]: 46.7%
viability, T/C [9]: 33.7%
viability, T/C [10]: 22.6%
viability, T/C [11]: 13.8%
viability, T/C [12]: 12.3%
viability, T/C [13]: 78.7%
viability, T/C [14]: 36.1%
viability, T/C [15]: 30.2%
viability, T/C [16]: 20.7%
viability, T/C [17]: 12.8%
viability, T/C [18]: 12%
viability, T/C [19]: 19.3%
viability, T/C [20]: 15.2%
viability, T/C [21]: 17.8%
viability, T/C [22]: 8.67%
viability, T/C [23]: 12.4%
viability, T/C [24]: 8.37%
viability, T/C [25]: 0.31%
viability, T/C [26]: 1.8%
viability, T/C [27]: 1.32%
viability, T/C [28]: 0.15%
viability, T/C [29]: 1.54%
viability, T/C [30]: 0.14%
viability, T/C [31]: 0.28%
viability, T/C [32]: 3.06%
viability, T/C [33]: 0.36%
viability, T/C [34]: 0.11%
viability, T/C [35]: 0.47%
viability, T/C [36]: 0.23%
viability, T/C [37]: 0.13%
viability, T/C [38]: 0.11%
viability, T/C [39]: 1.27%
viability, T/C [40]: 0.14%
viability, T/C [41]: 0.18%
viability, T/C [42]: 0.2%

IC50 [1]: 2.25 µM
IC50 [2]: 3.71 µM
IC50 [3]: 0.517 µM
IC50 [4]: < 0.0316 µM
IC50 [5]: < 0.0316 µM
IC50 [6]: < 0.0316 µM
SMILES: COc1ccc([C@@H](O)c2cc(-c3ncnc4cc(N5CCOCC5)ccc34)c(F)cc2Cl)nn1 + CNC(=O)c1ccc(Nc2nc(OC3CCCC3)c3c(-c4ccc5nc(C)oc5c4)c[nH]c3n2)c(OC)c1
viability, T/C [7]: 106%
viability, T/C [8]: 100%
viability, T/C [9]: 101%
viability, T/C [10]: 64.5%
viability, T/C [11]: 47.6%
viability, T/C [12]: 31.7%
viability, T/C [13]: 81.5%
viability, T/C [14]: 89.7%
viability, T/C [15]: 73.7%
viability, T/C [16]: 67.5%
viability, T/C [17]: 52.6%
viability, T/C [18]: 36.9%
viability, T/C [19]: 52.7%
viability, T/C [20]: 60%
viability, T/C [21]: 55.6%
viability, T/C [22]: 40.5%
viability, T/C [23]: 40.3%
viability, T/C [24]: 23.4%
viability, T/C [25]: 43.5%
viability, T/C [26]: 46.5%
viability, T/C [27]: 40%
viability, T/C [28]: 29.7%
viability, T/C [29]: 25.1%
viability, T/C [30]: 23.1%
viability, T/C [31]: 37.6%
viability, T/C [32]: 38.9%
viability, T/C [33]: 45.2%
viability, T/C [34]: 32.9%
viability, T/C [35]: 37%
viability, T/C [36]: 23.5%
viability, T/C [37]: 40.4%
viability, T/C [38]: 38.6%
viability, T/C [39]: 39.2%
viability, T/C [40]: 28.6%
viability, T/C [41]: 32.3%
viability, T/C [42]: 18.6%

IC50 (curve of compound): < 0.00316 µM
SMILES: CCc1c2c(nc3ccc(O)cc13)-c1cc3c(c(=O)n1C2)COC(=O)[C@]3(O)CC
viability, T/C (compound 0.00316 µM): 37.6% and 46.9%
viability, T/C (compound 0.01 µM): 41% and 49.8%
viability, T/C (compound 0.0316 µM): 32.2% and 42.1%
viability, T/C (compound 0.1 µM): 32.6% and 36%
viability, T/C (compound 0.316 µM): 11.1% and 16.2%
viability, T/C (compound 1 µM): 3.13% and 2.22%

IC50 (curve of compound): > 10 µM
SMILES: O=C(c1cc(Cc2n[nH]c(=O)c3ccccc23)ccc1F)N1CCN(C(=O)C2CC2)CC1
viability, T/C (compound 0.0316 µM): 102% and 97.1%
viability, T/C (compound 0.1 µM): 113% and 78.1%
viability, T/C (compound 0.316 µM): 95.2% and 74.9%
viability, T/C (compound 1 µM): 91.5% and 85.1%
viability, T/C (compound 3.16 µM): 86.9% and 76.4%
viability, T/C (compound 10 µM): 83.9% and 71.1%
